What follows are compounds tested against T1, stearoyl-CoA desaturase (SCD1) (Mus musculus, UniProt P13516) (assay: SCD microsomal assay: release of 3H2O from [9,10-3H]stearoyl-CoA in mouse liver microsomes). Conditions: 15 min incubation, 25° C.
T1 construct: Male ICR outbread mice, on a high-carbohydrate, low fat diet; from tissue; host or cells: liver microsomes of male ICR mice on a high-carbohydrate, low fat diet
T1 sequence (P13516 1-355): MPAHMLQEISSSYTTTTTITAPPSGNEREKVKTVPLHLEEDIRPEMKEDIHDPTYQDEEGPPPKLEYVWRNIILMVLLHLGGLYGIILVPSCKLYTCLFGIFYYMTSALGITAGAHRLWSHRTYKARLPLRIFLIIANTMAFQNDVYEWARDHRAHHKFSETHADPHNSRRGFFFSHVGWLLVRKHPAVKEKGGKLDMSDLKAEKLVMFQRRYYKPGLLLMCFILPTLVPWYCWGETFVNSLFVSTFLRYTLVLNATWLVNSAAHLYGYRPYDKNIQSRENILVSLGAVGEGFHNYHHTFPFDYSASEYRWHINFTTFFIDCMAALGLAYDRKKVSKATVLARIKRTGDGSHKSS
Assay type: biochemical
Excerpt: The identification of compounds of the invention as SCD inhibitors was readily accomplished using the SCD enzyme and microsomal assay procedure described in Shanklin J. and Summerville C., Proc. Natl. Acad. Sci. USA (1991), Vol. 88, pp. 2510-2514.
Measuring Stearoyl-CoA Desaturase Inhibition Activity of a Test Compound Using Mouse Liver Microsomes
The identification of compounds of the invention as SCD inhibitors was readily accomplished using the SCD microsomal assay procedure described in Shanklin J. and Summerville C., Proc. Natl. Acad. Sci. USA (1991), Vol. 88, pp. 2510-2514, which is incorporated herein by reference in its entirety.
Preparation of Mouse Liver Microsomes:
Male ICR outbread mice, on a high-carbohydrate, low fat diet, under light halothane (15% in mineral oil) anesthesia are sacrificed by exsanguination during periods of high enzyme activity. Livers are immediately rinsed with cold 0.9% NaCl solution, weighed and minced with scissors. All procedures are performed at 4° C. unless specified otherwise. Livers are homogenized in a solution (1/3 w/v) containing 0.25 M sucrose, 62 mM potassium phosphate buffer (pH 7.0), 0.15 M KCl, 15 mM N-acetylcysteine, 5 mM MgCl2, and 0.1 mM EDTA using 4 strokes of a Potter-Elvehjem tissue homogenizer. The homogenate is centrifuged at 10,400×g for 20 min to eliminate mitochondria and cellular debris. The supernatant is filtered through a 3-layer cheesecloth and centrifuged at 105,000×g for 60 min. The microsomal pellet is gently resuspended in the same homogenization solution with a small glass/teflon homogenizer and stored at −70° C. The absence of mitochondrial contamination is enzymatically assessed. The protein concentration is measured using bovine serum albumin as the standard.
Incubation of Mouse Liver Microsomes with Test Compounds:
Desaturase activity is measured as the release of ^3H2O from [9,10-^3H]stearoyl-CoA. Reactions per assay point conditions are as follows: 2 μL 1.5 mM stearoyl-CoA, 0.25 μL 1 mCi/mL ^3H stearoyl CoA, 10 μL 20 mM NADH, 36.75 μL 0.1 M PK buffer (K2HPO4/NaH2PO4, pH 7.2). The test compound or control solution is added in a 1 μL volume. Reactions are started by adding 50 μL of microsomes (1.25 mg/mL). The plates are mixed and after 15 min incubation on a heating block (25° C.), the reactions are stopped by the addition of 10 μL 60% PCA. An aliquot of 100 μL is then transferred to a filter plate pretreated with charcoal and the plate centrifuged at 4000 rpm for 1 minute. The flow through containing the ^3H2O released by the SCD1 desaturation reaction is added to scintillation fluid and the radioactivity measured in a Packard TopCount. The data is analyzed to identify the IC50 for test compounds and reference compounds. […] The activity was defined in terms of % SCD enzyme activity remaining at the desired concentration of the test compound or as the IC50 concentration. The IC50 (affinity) of the example compounds toward the stearoyl-CoA desaturase is comprised between around 20 μM and 0.0001 μM or between around 5 μM and 0.0001 μM or between around 1 μM and 0.0001 μM.

In order of falling IC50:
1. Cc1nc(-c2ccn(Cc3ccc(S(C)(=O)=O)cc3)n2)sc1C(=O)NCc1cccnc1 [Example 66, 2-[1-(4-methanesulfonyl-benzyl)-1H-pyrazol-3-yl]-4-methyl-thiazole-5-carboxylic acid (pyridin-3-ylmethyl)amide]  172 nM
2. Cc1nc(-c2cncc(N(C)CCCc3ccccc3)n2)sc1C(=O)NCc1ccc(F)cc1 [Example 16, 4-methyl-2-{6-[methyl-(3-phenyl-propyl)-amino]-pyrazin-2-yl}-thiazole-5-carboxylic acid 4-fluoro-benzylamide]  164 nM
3. Cc1nc(-c2ccn(CCC3CC3)n2)sc1C(=O)NCc1ccc(F)cc1 [Example 85, 2-[1-(2-cyclopropyl-ethyl)-1H-pyrazol-3-yl]-4-methyl-thiazole-5-carboxylic acid 4-fluoro-benzylamide]  147 nM
4. Cc1nc(-c2cncc(N(C)Cc3ccc(F)cc3)n2)sc1C(=O)NCc1ccccc1 [Example 29, 2-{6-[(4-fluoro-benzyl)-methyl-amino]-pyrazin-2-yl}-4-methyl-thiazole-5-carboxylic acid benzylamide]  124 nM
5. COc1ccc(CN(C)c2cncc(-c3nc(C)c(C(=O)NCc4ccc(F)cc4)s3)n2)cc1 [Example 22, 2-{6-[(4-methoxy-benzyl)-methyl-amino]-pyrazin-2-yl}-4-methyl-thiazole-5-carboxylic acid 4-fluoro-benzylamide]  98 nM
6. COc1ccc(CCn2ccc(-c3nc(C)c(C(=O)NCc4ccc(F)cc4)s3)n2)cc1 [Example 87, 2-{1-[2-(4-Methoxy-phenyl)-ethyl]-1H-pyrazol-3-yl}-4-methyl-thiazole-5-carboxylic acid 4-fluoro-benzylamide]  96 nM
7. Cc1nc(-c2ccn(Cc3ccc(C#N)cc3)n2)sc1C(=O)NCc1cccnc1 [Example 52, 2-[1-(4-cyano-benzyl)-1H-pyrazol-3-yl]-4-methyl-thiazole-5-carboxylic acid (pyridin-3-ylmethyl)amide]  74 nM
8. Cc1nc(-c2ccn(CCCc3ccccc3)n2)sc1C(=O)NCc1ccccc1 [Example 37, 4-methyl-2-[1-(3-phenyl-propyl)-1H-pyrazol-3-yl]-thiazole-5-carboxylic acid benzylamide]  71 nM
9. Cc1nc(-c2ccn(CCN(C)c3ccccc3)n2)sc1C(=O)NCc1cccnc1 [Example 79, 4-methyl-2-{1-[2-(methyl-phenylamino)-ethyl]-1H-pyrazol-3-yl}-thiazole-5-carboxylic acid (pyridin-3-ylmethyl)amide]  49 nM
10. Cc1nc(-c2cncc(CCc3ccccc3)n2)sc1C(=O)NCc1ccccc1 [Example 4, 4-methyl-2-(6-phenethyl-pyrazin-2-yl)-thiazole-5-carboxylic acid benzylamide]  42 nM
